Results on 8 compounds are retold here after ChEMBL document CHEMBL5465560, “Selectivity Literature for EUbOPEN Chemogenomic Library” (2024).

In experiment [1] the target is T1, Cytoplasmic tyrosine-protein kinase BMX (Homo sapiens) (UniProt P51813).
T1 sequence (whole entry): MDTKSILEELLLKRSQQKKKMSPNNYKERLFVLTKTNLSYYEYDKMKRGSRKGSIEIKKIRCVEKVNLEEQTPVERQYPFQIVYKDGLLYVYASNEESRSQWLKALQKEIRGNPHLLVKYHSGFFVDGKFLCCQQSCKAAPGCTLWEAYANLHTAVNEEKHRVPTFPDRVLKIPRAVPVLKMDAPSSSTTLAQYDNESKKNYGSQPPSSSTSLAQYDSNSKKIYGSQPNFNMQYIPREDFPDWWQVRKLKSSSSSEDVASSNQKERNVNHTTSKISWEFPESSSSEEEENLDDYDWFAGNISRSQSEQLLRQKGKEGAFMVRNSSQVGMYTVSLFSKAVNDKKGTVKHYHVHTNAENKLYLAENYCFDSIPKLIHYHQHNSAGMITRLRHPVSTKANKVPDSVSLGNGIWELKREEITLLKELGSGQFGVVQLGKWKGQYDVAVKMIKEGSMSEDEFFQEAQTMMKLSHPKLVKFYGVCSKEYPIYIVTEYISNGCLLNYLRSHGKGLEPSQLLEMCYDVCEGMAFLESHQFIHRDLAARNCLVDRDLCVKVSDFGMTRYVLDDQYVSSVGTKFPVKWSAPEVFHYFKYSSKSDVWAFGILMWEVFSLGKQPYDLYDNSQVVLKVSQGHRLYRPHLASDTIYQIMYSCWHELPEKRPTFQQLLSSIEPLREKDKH
Particulars: at 10 µM.

Experiment [2] deals with RAC-alpha serine/threonine-protein kinase (Homo sapiens, UniProt P31749). Kind of experiment: Selectivity interaction (SelectScreen profiling (Invitrogen)) EUB0000607a AKT1. Particulars: at 2 µM.
In experiment [3] the target is T2, Ephrin type-B receptor 2 (Homo sapiens) (UniProt P29323).
T2 sequence (whole entry): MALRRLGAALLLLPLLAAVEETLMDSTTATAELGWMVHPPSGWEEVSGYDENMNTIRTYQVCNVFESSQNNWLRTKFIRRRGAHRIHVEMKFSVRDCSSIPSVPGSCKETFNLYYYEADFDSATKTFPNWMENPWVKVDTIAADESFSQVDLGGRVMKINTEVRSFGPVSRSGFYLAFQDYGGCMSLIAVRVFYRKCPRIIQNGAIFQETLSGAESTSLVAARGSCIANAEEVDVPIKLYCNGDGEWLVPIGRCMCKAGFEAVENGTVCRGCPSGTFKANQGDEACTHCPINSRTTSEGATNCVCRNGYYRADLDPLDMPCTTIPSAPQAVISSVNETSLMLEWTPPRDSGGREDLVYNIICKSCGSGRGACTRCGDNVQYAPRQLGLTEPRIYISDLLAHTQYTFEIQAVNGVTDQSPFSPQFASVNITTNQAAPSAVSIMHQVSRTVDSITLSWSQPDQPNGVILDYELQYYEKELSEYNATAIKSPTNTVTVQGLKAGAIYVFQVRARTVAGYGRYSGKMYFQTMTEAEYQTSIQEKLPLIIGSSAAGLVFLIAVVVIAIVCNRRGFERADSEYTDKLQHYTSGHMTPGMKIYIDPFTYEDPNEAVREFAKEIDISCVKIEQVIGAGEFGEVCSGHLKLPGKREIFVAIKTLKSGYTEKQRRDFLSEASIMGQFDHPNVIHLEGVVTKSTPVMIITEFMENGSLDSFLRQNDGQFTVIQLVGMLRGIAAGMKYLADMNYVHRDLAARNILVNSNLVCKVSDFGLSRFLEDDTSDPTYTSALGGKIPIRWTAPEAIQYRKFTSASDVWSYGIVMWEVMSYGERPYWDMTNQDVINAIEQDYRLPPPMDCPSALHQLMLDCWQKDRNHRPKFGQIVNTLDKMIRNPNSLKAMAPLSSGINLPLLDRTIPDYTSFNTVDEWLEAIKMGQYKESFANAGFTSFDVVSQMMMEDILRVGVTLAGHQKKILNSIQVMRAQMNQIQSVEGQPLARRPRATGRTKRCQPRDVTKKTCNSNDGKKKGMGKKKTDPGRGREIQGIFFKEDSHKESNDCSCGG
Particulars: at 10 µM.

Experiment [4] has as its target Serine/threonine-protein kinase SMG1 (Homo sapiens) (UniProt Q96Q15). Kind of experiment: Selectivity interaction (ActivX KiNativ screen (kinase selectivity in THP-1 cell lysates)) EUB0000639a SMG1. The class given is subcellular. Particulars: lysate.
For experiment [5], the target named is Ribosomal protein S6 kinase alpha-3 (Homo sapiens, UniProt P51812). Kind of experiment: Selectivity interaction (ActivX KiNativ screen (kinase selectivity in THP-1 cell lysates)) EUB0000639a RPS6KA3. The format is subcellular. The note with it: lysate, at 0.2 µM.
Experiment [6] has as its target Serine/threonine-protein kinase B-raf (Homo sapiens) (UniProt P15056). Kind of experiment: Selectivity interaction (Kinase panel (Invitrogen)) EUB0000639a BRAF. Particulars: at 200 nM.
A further experiment concerns the target Misshapen-like kinase 1 (Homo sapiens, UniProt Q8N4C8). The experiment is described as follows: Selectivity interaction (Kinase panel (literature)) EUB0001199aCl MINK1. The note with it: at 1 µM.
The target of experiment [7] is T3, MAP kinase-activated protein kinase 5 (Homo sapiens) (UniProt Q8IW41).
T3 sequence (whole entry): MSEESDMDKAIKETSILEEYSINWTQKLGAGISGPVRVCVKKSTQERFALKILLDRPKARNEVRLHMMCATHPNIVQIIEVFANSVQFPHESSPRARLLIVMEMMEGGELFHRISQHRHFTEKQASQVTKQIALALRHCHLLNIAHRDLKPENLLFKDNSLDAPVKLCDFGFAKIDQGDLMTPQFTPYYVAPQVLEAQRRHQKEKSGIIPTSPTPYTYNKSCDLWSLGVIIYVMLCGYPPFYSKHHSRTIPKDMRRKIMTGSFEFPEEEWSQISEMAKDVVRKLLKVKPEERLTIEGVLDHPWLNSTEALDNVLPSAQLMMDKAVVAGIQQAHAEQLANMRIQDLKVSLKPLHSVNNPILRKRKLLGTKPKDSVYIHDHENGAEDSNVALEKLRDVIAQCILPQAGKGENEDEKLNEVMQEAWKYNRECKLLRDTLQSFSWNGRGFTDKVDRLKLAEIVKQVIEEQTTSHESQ
The experiment is described as follows: Selectivity interaction (KinomeScan (DiscoverX)) EUB0001049a MAPKAPK5. Particulars: at 1 µM.

In experiment [8] the test system is Tyrosine-protein kinase ABL1 (Homo sapiens), P00519 [F317L]. Kind of experiment: Selectivity interaction (KinomeScan (DiscoverX)) EUB0000655a ABL1. The note with it: at 10 µM.
Experiment [9] concerns the target Mitogen-activated protein kinase 11 (Homo sapiens) (UniProt Q15759). The experiment is described as follows: Selectivity interaction (KinomeScan (DiscoverX)) EUB0000618a MAPK11. The note with it: at 10 µM.

Chain of Serine/threonine-protein kinase SMG1 (Homo sapiens) (Q96Q15 whole entry): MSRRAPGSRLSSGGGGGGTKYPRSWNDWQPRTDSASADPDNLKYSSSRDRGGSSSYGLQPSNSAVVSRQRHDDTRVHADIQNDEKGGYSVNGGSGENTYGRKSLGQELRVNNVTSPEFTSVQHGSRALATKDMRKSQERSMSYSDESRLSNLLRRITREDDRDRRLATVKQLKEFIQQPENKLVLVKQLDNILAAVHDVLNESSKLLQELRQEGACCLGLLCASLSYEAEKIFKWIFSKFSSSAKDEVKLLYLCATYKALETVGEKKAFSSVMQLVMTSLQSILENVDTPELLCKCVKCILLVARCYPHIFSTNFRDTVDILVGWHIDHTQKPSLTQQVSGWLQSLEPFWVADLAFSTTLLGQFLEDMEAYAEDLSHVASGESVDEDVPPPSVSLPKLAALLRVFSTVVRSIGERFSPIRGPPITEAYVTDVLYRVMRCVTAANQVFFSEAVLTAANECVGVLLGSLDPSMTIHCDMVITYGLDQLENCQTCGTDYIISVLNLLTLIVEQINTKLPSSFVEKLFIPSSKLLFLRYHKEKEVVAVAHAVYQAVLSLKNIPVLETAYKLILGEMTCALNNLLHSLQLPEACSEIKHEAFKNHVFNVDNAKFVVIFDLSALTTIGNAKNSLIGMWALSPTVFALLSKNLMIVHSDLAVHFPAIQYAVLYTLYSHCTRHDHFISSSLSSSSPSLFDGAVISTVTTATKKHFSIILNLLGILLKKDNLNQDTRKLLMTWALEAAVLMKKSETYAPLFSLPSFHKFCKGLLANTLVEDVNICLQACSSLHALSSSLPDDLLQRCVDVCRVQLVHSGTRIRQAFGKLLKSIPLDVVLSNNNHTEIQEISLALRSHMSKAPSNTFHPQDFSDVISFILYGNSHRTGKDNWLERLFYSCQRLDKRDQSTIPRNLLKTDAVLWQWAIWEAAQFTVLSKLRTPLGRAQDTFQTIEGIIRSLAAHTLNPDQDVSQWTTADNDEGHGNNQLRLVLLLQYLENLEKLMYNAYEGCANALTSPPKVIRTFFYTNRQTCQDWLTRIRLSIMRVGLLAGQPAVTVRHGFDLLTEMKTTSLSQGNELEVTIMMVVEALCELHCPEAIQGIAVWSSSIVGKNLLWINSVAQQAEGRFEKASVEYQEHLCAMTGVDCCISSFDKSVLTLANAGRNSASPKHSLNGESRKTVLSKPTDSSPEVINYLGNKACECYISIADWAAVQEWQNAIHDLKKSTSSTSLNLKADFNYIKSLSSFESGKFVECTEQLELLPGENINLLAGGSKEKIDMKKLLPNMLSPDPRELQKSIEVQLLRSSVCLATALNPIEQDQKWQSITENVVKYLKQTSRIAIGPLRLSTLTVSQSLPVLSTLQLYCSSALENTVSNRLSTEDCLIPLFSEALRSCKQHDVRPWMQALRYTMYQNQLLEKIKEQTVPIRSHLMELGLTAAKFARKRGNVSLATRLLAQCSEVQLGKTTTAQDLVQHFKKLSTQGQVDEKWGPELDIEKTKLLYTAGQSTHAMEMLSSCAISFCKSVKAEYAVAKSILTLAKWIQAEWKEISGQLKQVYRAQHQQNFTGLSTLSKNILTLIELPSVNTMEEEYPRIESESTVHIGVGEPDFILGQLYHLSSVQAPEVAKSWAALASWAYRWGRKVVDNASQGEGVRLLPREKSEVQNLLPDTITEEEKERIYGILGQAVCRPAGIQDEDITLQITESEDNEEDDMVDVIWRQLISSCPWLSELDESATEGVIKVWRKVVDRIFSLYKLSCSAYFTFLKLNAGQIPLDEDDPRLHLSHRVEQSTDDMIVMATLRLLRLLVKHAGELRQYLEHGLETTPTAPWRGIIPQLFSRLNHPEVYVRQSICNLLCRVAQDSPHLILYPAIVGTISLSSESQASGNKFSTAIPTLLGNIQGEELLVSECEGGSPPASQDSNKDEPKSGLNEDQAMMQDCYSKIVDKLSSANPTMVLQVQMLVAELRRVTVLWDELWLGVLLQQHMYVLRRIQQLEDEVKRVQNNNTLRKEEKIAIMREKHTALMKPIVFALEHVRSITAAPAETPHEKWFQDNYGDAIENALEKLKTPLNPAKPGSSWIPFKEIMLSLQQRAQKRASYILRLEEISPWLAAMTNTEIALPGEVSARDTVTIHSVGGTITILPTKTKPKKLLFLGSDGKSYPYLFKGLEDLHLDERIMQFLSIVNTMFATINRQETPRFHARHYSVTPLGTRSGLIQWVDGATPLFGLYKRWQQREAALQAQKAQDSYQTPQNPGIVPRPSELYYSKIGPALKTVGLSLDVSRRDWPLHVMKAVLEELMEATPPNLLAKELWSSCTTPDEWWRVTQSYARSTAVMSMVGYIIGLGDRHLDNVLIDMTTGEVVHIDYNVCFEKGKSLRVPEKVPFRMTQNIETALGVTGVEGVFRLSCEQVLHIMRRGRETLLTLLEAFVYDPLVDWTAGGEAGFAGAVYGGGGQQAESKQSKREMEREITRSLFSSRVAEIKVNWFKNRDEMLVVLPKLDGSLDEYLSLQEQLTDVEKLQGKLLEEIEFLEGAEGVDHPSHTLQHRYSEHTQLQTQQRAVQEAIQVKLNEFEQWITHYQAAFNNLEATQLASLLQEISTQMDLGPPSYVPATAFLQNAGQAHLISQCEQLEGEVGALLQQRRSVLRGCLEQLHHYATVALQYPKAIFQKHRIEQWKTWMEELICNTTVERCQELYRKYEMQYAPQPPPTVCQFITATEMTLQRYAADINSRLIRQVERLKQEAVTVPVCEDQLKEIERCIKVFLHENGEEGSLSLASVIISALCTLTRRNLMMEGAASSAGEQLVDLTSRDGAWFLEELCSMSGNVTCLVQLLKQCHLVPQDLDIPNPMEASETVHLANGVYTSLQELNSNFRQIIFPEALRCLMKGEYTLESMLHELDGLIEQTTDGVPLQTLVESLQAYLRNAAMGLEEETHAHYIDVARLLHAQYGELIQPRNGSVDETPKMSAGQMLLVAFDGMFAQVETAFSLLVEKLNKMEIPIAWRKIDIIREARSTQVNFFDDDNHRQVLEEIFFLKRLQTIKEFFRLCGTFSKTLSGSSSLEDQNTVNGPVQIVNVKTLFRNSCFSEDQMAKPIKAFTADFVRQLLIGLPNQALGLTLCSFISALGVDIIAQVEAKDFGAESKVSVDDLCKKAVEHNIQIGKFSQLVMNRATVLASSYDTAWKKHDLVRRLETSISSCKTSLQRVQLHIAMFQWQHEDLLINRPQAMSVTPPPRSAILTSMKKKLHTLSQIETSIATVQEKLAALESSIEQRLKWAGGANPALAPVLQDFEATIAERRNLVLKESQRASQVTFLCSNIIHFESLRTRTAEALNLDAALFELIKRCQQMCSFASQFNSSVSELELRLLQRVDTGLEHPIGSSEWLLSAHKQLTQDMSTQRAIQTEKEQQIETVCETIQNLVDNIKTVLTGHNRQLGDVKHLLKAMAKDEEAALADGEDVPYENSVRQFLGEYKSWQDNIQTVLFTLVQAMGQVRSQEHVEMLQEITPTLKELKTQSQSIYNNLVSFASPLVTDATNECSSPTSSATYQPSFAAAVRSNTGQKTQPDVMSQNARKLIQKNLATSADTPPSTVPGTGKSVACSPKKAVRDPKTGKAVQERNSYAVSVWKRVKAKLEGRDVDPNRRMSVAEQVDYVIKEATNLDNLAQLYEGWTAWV
Chain of Tyrosine-protein kinase ABL1 (Homo sapiens), P00519 [F317L] (P00519 whole entry F317L): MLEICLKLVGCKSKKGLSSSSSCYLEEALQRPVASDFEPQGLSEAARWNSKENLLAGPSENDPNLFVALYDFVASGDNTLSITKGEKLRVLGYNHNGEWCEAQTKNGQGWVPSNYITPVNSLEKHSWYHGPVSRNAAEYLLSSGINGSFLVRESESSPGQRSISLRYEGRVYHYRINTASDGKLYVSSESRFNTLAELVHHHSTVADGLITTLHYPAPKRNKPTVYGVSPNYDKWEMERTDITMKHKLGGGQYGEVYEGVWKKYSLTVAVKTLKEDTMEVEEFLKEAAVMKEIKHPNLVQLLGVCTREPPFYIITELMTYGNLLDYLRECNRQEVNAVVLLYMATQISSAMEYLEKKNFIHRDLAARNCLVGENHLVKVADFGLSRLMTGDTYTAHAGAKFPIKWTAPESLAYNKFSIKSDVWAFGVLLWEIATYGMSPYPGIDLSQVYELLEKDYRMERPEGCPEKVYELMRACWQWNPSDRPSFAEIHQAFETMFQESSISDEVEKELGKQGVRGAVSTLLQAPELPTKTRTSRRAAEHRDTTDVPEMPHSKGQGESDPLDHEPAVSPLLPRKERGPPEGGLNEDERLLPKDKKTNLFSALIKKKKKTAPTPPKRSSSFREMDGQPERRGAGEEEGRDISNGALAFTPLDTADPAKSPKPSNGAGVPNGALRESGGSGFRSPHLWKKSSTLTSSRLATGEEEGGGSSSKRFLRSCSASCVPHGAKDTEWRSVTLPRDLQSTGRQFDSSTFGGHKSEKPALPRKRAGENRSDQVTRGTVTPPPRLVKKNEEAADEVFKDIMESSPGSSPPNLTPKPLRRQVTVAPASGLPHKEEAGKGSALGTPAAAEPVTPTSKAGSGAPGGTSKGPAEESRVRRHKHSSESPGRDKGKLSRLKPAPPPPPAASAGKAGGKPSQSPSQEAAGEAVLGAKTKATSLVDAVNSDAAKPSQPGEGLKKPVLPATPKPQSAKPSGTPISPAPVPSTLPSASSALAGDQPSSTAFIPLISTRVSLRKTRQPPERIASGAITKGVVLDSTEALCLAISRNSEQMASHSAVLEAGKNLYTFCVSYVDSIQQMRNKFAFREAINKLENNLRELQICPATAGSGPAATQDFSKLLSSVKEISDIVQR
Chain of Mitogen-activated protein kinase 11 (Homo sapiens) (Q15759 whole entry): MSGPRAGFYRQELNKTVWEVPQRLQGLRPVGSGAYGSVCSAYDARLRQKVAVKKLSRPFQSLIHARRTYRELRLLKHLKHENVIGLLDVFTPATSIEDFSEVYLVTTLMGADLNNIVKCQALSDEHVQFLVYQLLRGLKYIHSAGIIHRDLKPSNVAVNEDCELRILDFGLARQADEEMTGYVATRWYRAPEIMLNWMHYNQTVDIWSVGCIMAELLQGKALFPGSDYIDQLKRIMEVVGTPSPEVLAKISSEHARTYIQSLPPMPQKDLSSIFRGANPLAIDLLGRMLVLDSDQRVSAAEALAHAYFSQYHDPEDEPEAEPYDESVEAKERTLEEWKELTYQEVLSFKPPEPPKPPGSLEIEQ

As to `CCN(CC)CCCCNc1ncc2cc(-c3cc(OC)cc(OC)c3)c(NC(=O)NC(C)(C)C)nc2n1`, the % of control in experiment [1] is 100%.

Turning to `CNC(=O)Nc1ccc(-c2nc(N3CC4CCC(C3)O4)c3cnn(C4CCC5(CC4)OCCO5)c3n2)cc1`, the % of inhibition in [2] is -5%. Turning to `Cc1cc([C@@H](C)Nc2ccccc2C(=O)O)c2nc(N3CCOCC3)cc(=O)n2c1` [AZD-6482], the % of control in experiment [3] is 100%. On to `CC[C@@H]1[C@H](F)C(=O)N[C@@H]1COc1nccc2cc(C(N)=O)c(OC)cc12` [ZIMLOVISERTIB], for which the % of inhibition in [4] (at 0.01 µM) was 7.7%; in experiment [4] (at 0.04 µM), 1.9%; in experiment [4] (at 0.2 µM), 6.9%; in experiment [4] (at 1 µM) it was 6.1%; in experiment [4] (at 5 µM), -13.6%; in [5], 5.4%. Besides, the % of inhibition in experiment [6] is 8.97%. Turning to `CN1Cc2nccc(-c3cn(C)nc3-c3ccc(F)cc3)c2C1=O`, at Misshapen-like kinase 1, the % of inhibition turned out to be 42%. As to `COc1cc(Nc2nc(C)cc(-c3cnn4nc(OC)ccc34)n2)cc(C(F)(F)F)c1`, the % of control in [7] came to 82%. Take `CN(C)CCOc1ccc(-c2nc(-c3ccncc3)c(-c3ccc4c(c3)CC/C4=N\O)[nH]2)cc1`: in experiment [8], the % of control was determined as 59%. The compound `O[C@H]1CC[C@H](Nc2ncc3nc(Nc4c(F)cc(F)cc4F)n([C@H]4CCOC4)c3n2)CC1` gave a % of control in experiment [9] of 24%.
